Values quoted from earlier work in article PMC8966651, “PKPD Modeling of the Inoculum Effect of Acinetobacter baumannii on Polymyxin B in vivo” (Frontiers in Pharmacology, 2022).
Where two headings read alike, the source gives them in different places.

Key:
A. baumannii = settings: initial inoculum of A. baumannii increased from 10^7 to 10^8 CFU/lung; ref Lin et al., 2018; cited from earlier work
Description: Yet the IE of A. baumannii on polymyxins in vivo remains to be investigated. […] But IE was only investigated on rare occasions in vivo, with antibiotics such as marbofloxacin ([Ferran et al., 2009]), piperacillin-tazobatam ([Harada et al., 2014]), ertapenem ([Maglio et al., 2005]), meropenem ([Mizunaga et al., 2005]) or colistin ([Fantin et al., 2019]) against various Gram-negative pathogens such as E. coli, K. pneumoniae ...

E. coli [1] = settings: cited from earlier work; for E. coli MICs at initial inoculum 10^7 CFU/ml compared to 10^5 CFU/ml: in vitro
Description: The clinical relevance of in vitro IE has been questioned in previous studies ([Maglio et al., 2004]; [Maglio et al., 2005]; [Fantin et al., 2019]).

E. coli [2] = settings: murine thigh infection model; ref de Araujo et al., 2011; cited from earlier work
Description: An innovative aspect of this study was the refinement of a PKPD model, based on the model developed after in vitro TK experiments conducted with A. baumannii and PMB ([Akrong et al., 2021]). […] The different growth behavior between in vitro and in vivo has been associated in literature ...

Molecule: colistin
- efficacy of nebulized colistin with increasing inoculum (A. baumannii): decrease in the efficacy
- inoculum effect (IE) in vivo (E. coli [1]; mice infected with E. coli, ref Fantin et al., 2019): observed an in vivo IE

Molecule: CO/N=C(\C(=O)N[C@@H]1C(=O)N2C(C(=O)[O-])=C(C[N+]3(C)CCCC3)CS[C@H]12)c1csc(N)n1 [cefepime]
- E. coli MICs at initial inoculum 10^7 CFU/ml compared to 10^5 CFU/ml (E. coli [1]; ref Maglio et al., 2004): elevations of E. coli MICs
- inoculum effect (IE) in vivo (E. coli [1]; neutropenic mouse thigh infection model, ref Maglio et al., 2004): no IE was observed in vivo

Molecule: CCN1CCN(C(=O)N[C@@H](C(=O)N[C@@H]2C(=O)N3[C@@H]2SC(C)(C)[C@@H]3C(=O)O)c2ccccc2)C(=O)C1=O [piperacillin]
- maximum killing effect in vivo as compared to in vitro (E. coli [2]): two times smaller

Molecule: C[C@@H](O)[C@H]1C(=O)N2C(C(=O)O)=C(S[C@@H]3CN[C@H](C(=O)Nc4cccc(C(=O)O)c4)C3)[C@H](C)[C@H]12 [ertapenem]
- E. coli MICs at initial inoculum 10^7 CFU/ml compared to 10^5 CFU/ml (E. coli [1]; ref Maglio et al., 2005): elevations of E. coli MICs
- inoculum effect (IE) in vivo (E. coli [1]; neutropenic mouse thigh infection model, ref Maglio et al., 2005): no IE was observed in vivo
